Measured values as given in US20230023847A1, “COMPOSITION FOR PREVENTING HAIR LOSS AND PROMOTING HAIR REGROWTH” (LG HOUSEHOLD & HEALTH CARE LTD., priority 2020, published 2023).

Experiments:
Dkk-1 = assay: Inhibition of expression of hair follicle catagen factor (Dkk-1 ELISA); assay type: cell-based; settings: 24 hours, human dermal papilla cells (hDPCs)
Experimental: The inhibition of the expression of the hair follicle catagen marker Dkk-1 was investigated using human dermal papilla cells (hDPCs). The human dermal papilla cells were purchased from PromoCell. The hDPCs were subcultured in an hDPC culture medium (follicle dermal papilla cell growth medium; PromoCell, Heidelberg, Germany) containing a medium additive (Supplement Mix; PromoCell, Heidelberg, Germany), 100 units/mL penicillin and […] streptomycin under the condition of 37° C. and 5% CO2. One million subcultured hDPCs were seeded onto a 100-mm cell culture dish and then cultured in an incubator at 37° C. 48 hours later, after treating with each of gypsogenin 3-O-β-D-glucuronopyranoside, deapioplatycodin D, congmunoside X and chikusetsusaponin IVa at 2 ppm or 20 ppm for 24 hours, the cell culture was subjected to Dkk-1 ELISA assay (R&D Systems, USA). The protein amount of each test group was identified by BCA assay and corrected with the result of Dkk-1 ELISA.

androgen receptor = assay: Androgenic activity: transcriptional activation (MMTV-Luc luciferase reporter) assay with 1 nM DHT; assay type: cell-based, human; settings: 24 hours
Experimental: (§1) The stable cell line was maintained by subculturing using RPMI1640 and 10% fetal bovine serum (GIBCO BRL, Gaithersburg, Md., USA). For transcriptional activation assay, the cells were seeded in a 96-well plate, with 25,000 cells per well, while replacing the medium with phenol red-free RPMI1640 containing 5% charcoal-stripped fetal bovine serum. […] The cell culture was treated and incubated with CCK-8 at 1:10 for 2 hours. 2 hour later, the absorbance of each well was measured at 450 nm. All the experiments were 3 times and the absorbance was averaged. […] The experimental result is shown in Table 1, Table 2 and FIGS. 1-4.

[1] = system: 22Rv1 human prostate cancer cells; assay: CCK-8 assay conducted in parallel to investigate cytotoxicity (cell viability)
Experimental: as §1

Structure (SMILES)	Relative expression level of Dkk-1 (% of untreated group) (Dkk-1; 2 ppm)	Relative expression level of Dkk-1 (% of untreated group) (Dkk-1; 20 ppm)	Androgenic activity (% of 1 nM DHT) (androgen receptor; 0.2 ppm together with 1 nM DHT)	Androgenic activity (% of 1 nM DHT) (androgen receptor; 2 ppm together with 1 nM DHT)	Androgenic activity (% of 1 nM DHT) (androgen receptor; 20 ppm together with 1 nM DHT)	Cell viability (% of 1 nM DHT) ([1]; DHT 1 nM alone, CCK-8, 22Rv1 stable cell line)	Androgenic activity (% of 1 nM DHT) (androgen receptor; DHT 1 nM alone, 22Rv1 MMTV-Luc stable cell line)	Cell viability (% of 1 nM DHT) ([1]; 0.2 ppm together with 1 nM DHT, CCK-8)	Cell viability (% of 1 nM DHT) ([1]; 2 ppm together with 1 nM DHT, CCK-8)	Cell viability (% of 1 nM DHT) ([1]; 20 ppm together with 1 nM DHT, CCK-8)	Androgenic activity (% of 1 nM DHT) (androgen receptor; 200 ppm together with 1 nM DHT)
CC1(C)CC[C@]2(C(=O)O)CC[C@]3(C)C(=CC[C@@H]4[C@@]5(C)CC[C@H](O[C@@H]6O[C@H](C(=O)O)[C@@H](O)[C@H](O)[C@H]6O)[C@@](C)(C=O)[C@@H]5CC[C@]43C)[C@@H]2C1 [Gypsogenin 3-O-β-D-glucuronopyranoside, gypsogenin 3-O-β-D-glucuronopyranoside]	96.5 % of untreated group	77.5 % of untreated group	98.1 % of 1 nM DHT	79.1 % of 1 nM DHT	−9.8 % of 1 nM DHT						
C[C@]12CCC(=O)C[C@@H]1CC[C@@H]1[C@@H]2CC[C@]2(C)[C@@H](O)CC[C@@H]12 [DHT, dihydrotestosterone, reference compound]						100.0 % of 1 nM DHT	100.0 % of 1 nM DHT				
CC1(C)CC[C@]2(C(=O)O[C@@H]3O[C@H](CO)[C@@H](O)[C@H](O)[C@H]3O)CC[C@]3(C)C(=CC[C@@H]4[C@@]5(C)CC[C@H](O[C@@H]6O[C@H](C(=O)O)[C@@H](O)[C@H](O)[C@H]6O)C(C)(C)[C@@H]5CC[C@]43C)[C@@H]2C1 [Chikusetsusaponin IVa, chikusetsusaponin IVa]	85.2 % of untreated group	70.9 % of untreated group	84.7 % of 1 nM DHT	79 % of 1 nM DHT	77.5 % of 1 nM DHT						
C[C@@H]1O[C@@H](O[C@H]2[C@H](OC(=O)[C@]34CCC(C)(C)C[C@H]3C3=CC[C@@H]5[C@@]6(C)C[C@H](O)[C@H](O[C@@H]7O[C@H](CO)[C@@H](O)[C@H](O)[C@H]7O)C(CO)(CO)[C@@H]6CC[C@@]5(C)[C@]3(C)C[C@H]4O)OC[C@H](O)[C@@H]2O)[C@H](O)[C@H](O)[C@H]1O[C@@H]1OC[C@@H](O)[C@H](O)[C@H]1O [Deapioplatycodin D, deapioplatycodin D]	86.4 % of untreated group	76.7 % of untreated group	89.1 % of 1 nM DHT	72.2 % of 1 nM DHT	34.9 % of 1 nM DHT			102.2 % of 1 nM DHT	99.4 % of 1 nM DHT	81.6 % of 1 nM DHT	
CC1(C)CC[C@]2(C(=O)O[C@@H]3O[C@H](CO)[C@@H](O)[C@H](O)[C@H]3O)CC[C@]3(C)C(=CC[C@@H]4[C@@]5(C)CC[C@H](O[C@@H]6O[C@H](CO)[C@@H](O)[C@H](O[C@@H]7O[C@H](CO)[C@@H](O)[C@H](O[C@@H]8O[C@H](CO)[C@@H](O)[C@H](O)[C@H]8O)[C@H]7O)[C@H]6O[C@@H]6O[C@H](CO)[C@@H](O)[C@H](O)[C@H]6O)C(C)(C)[C@@H]5CC[C@]43C)[C@@H]2C1 [Congmunoside X, congmunoside X]	90.8 % of untreated group	81.2 % of untreated group		104.4 % of 1 nM DHT	85.9 % of 1 nM DHT						14.9 % of 1 nM DHT
